Measured values published in patent publication US20100285959A1, “HERBICIDAL MIXTURES” (priority 2006, published 2010).

Experiments:
common purslane (POROL) = experiment: Test 12 field trial, preemergence; type: in vivo, Portulaca oleracea; conditions: Cpd 2 or Cpd 1 62 g a.i./ha, Diuron 2000 g a.i./ha
Excerpt: (§1) In early-mid spring season, corn seeds (hybrid ‘Pioneer 3041’) were planted 5 cm deep and sugarcane nodes (variety RB-72.454) were planted 10 cm deep in separate plots in a clay soil having 2.6% organic matter and a pH of 5.6. Plots were 24 m long by 1.5 m wide with rows spaced 80 cm (corn) or 140 cm (sugarcane) apart. Corn seeds were spaced 15 cm apart and sugarcane nodes were spaced 10 cm apart within the rows. At the same time, weed seeds were broadcast over the surface of separate plots without a crop, one weed species per plot. The weed plots were rotary tilled to incorporate the weed seeds to a variety of depths. The field was managed using conventional tillage practices.

arrowleaf sida (SIDRH) = experiment: Test 12 field trial, preemergence; type: in vivo, Sida rhombifolia; set-up: scale not given here; conditions: Cpd 2 or Cpd 1 62 g a.i./ha, Diuron 2000 g a.i./ha
Excerpt: as §1

wild buckwheat (POLCO) = experiment: Test 23 growth chamber, postemergence; type: in vivo, Polygonum convolvulus; conditions: 21 DAA
Procedure: (§2) A test was conducted to evaluate the effects on winter barley (HORVW, Hordeum vulgare L.), winter wheat (TRZAW, Triticum aestivum L.), and several weed species of mixtures of Compound 2 with the commercial herbicides (2,4-dichlorophenoxy)acetic acid (2,4-D) and (4-chloro-2-methylphenoxy)acetic acid (MCPA), auxin mimics. […] Plants were treated postemergence at the 2-4 leaf growth stage, and each treatment was replicated three times. […] Plants were watered as needed. […] Results are means of the three replicates.

red deadnettle (LAMPU) = experiment: Test 9 field trial, emerged weeds before corn planting; type: in vivo, Lamium purpureum; conditions: g a.i./ha: Cpd 2 100, Glyphosate 1540, Paraquat 1150
Procedure: Corn seeds (hybrid ‘Pioneer 34M91 RR’) were planted in mid spring season, about 3.8 cm deep in a silty clay loam soil having a pH of 6.7. Plots were 9.1 m long by 3.0 m. The field was managed using no-till practices. […] Compound 2 and paraquat treatments, alone and in combination, also included a surfactant. Glyphosate, alone and with Compound 2, included ammonium sulfate in the treatment mixture. […] The effects on the weeds in the treated plots and untreated control plots were recorded 7, 14, 23, 30 and 57 days after application. Most of the weed species could not be evaluated at every timing. Corn response was only evaluated 57 days after application. […] Results are the means of the three replicates.

redroot pigweed (AMARE) = experiment: Test 23 growth chamber, postemergence; type: in vivo, Amaranthus retroflexus; conditions: 21 DAA
Procedure: as §2

curly dock (RUMCR) = experiment: Test 3 field trial, emerged weeds before corn planting; type: in vivo, Rumex crispus; conditions: Cpd 2 100, glyphosate 1540, paraquat 1150 g a.i./ha, alone or combined
Excerpt: Corn seeds (hybrid ‘Pioneer 33J56’) were planted in early spring season, 3.8 cm deep in a silt loam soil having 2.4% organic matter and a pH of 6. Plots were 6.1 m long by 2.7 m wide with rows spaced 91.4 cm apart. The field was managed using no-till practices. […] Compound 2 and paraquat treatments, alone and in combination, also included a surfactant. Glyphosate, alone and with Compound 2, included ammonium sulfate in the treatment mixture. […] The effects on the weeds in the treated plots and untreated control plots were recorded 30, 42, 46 and 68 days after application. Most of the weed species could not be evaluated at every timing. Corn response was not evaluated because the growth was highly variable depending on the efficacy of the weed control treatments. […] Results are the means of the three replicates.

common ragweed (AMBEL) = experiment: Test 14 field trial, preemergence, growth as percent of control; type: in vivo, Ambrosia artemisiifolia
Excerpt: Corn seeds (hybrid ‘Pioneer 31G96 RR’) were planted in mid spring season, 3.8 cm deep in a clay loam soil having 2% organic matter and a pH of 6.6. Plots were 6.1 m long by 3.0 m wide with rows spaced 76 cm apart. Seeds were spaced 15 cm apart within the rows. The field was managed using conventional tillage practices. […] Yellow nutsedge was only evaluated 19 and 28 days after application, and ivyleaf morningglory could only be evaluated 28 days after application. […] Results are the means of the three replicates. This growth inhibition data was converted to results in the form of “plant growth as a percent of control plant growth” using the calculation “100 minus growth inhibition”. […] For “growth as a percent of control” data, Colby's Equation calculates the expected additive effect of herbicidal mixtures having two active ingredients as follows:
Ga+b=GaGb/100 • wherein Ga+b is the growth as a percent of control of plants treated with the mixture expected from additive contribution of the individual components, • Ga is the observed growth as a percent of control of plants treated with the first active ingredient at the same use rate as in the mixture, and • Gb is the observed growth as a percent of control of plants treated with the second active ingredient at the same use rate as in the mixture. For mixtures having three active ingredients, Colby's Equation to calculate the expected additive effect of herbicidal mixtures is as follows:
Ga+b+c=GaGbGc/10,000 • wherein Ga and Gb are as defined above and • Ga+b+c is the growth as a percent of control of plants treated with the mixture expected from additive contribution of the individual components, and • Gc is the observed growth as a percent of control of plants treated with the third active ingredient at the same use rate as in the mixture. When these two forms of Colby's Equation are used, if the observed effects on weeds are less than the expected values, the mixture is synergistic.

[1] = 2,4-D or MCPA alone 250 g a.i./ha

| SMILES | POROL Obs (common purslane (POROL); 15 DAA) | POROL Obs (common purslane (POROL); 29 DAA) | POROL Obs (common purslane (POROL); 48 DAA) | POROL Obs (common purslane (POROL); 61 DAA) | SIDRH Obs (arrowleaf sida (SIDRH); 15 DAA) | SIDRH Obs (arrowleaf sida (SIDRH); 29 DAA) | SIDRH Obs (arrowleaf sida (SIDRH); 48 DAA) | SIDRH Obs (arrowleaf sida (SIDRH); 61 DAA) | LAMPU Obs (red deadnettle (LAMPU); 7 DAA) | LAMPU Obs (red deadnettle (LAMPU); 14 DAA) | LAMPU Obs (red deadnettle (LAMPU); 23 DAA) | LAMPU Obs (red deadnettle (LAMPU); 30 DAA) | RUMCR Obs (curly dock (RUMCR); 30 DAA) | RUMCR Obs (curly dock (RUMCR); 42 DAA) | RUMCR Obs (curly dock (RUMCR); 46 DAA) | RUMCR Obs (curly dock (RUMCR); 68 DAA) | also measured |
| --- | --- | --- | --- | --- | --- | --- | --- | --- | --- | --- | --- | --- | --- | --- | --- | --- | --- |
| Nc1nc(C2CC2)nc(C(=O)O)c1Cl [Compound 1, 6-amino-5-chloro-2-cyclopropyl-4-pyrimidinecarboxylic acid] | 90 | 97 | 100 | 100 | 60 | 95 | 100 | 95 | – | – | – | – | – | – | – | – | – |
| COC(=O)c1nc(C2CC2)nc(N)c1Cl [Compound 2, methyl 6-amino-5-chloro-2-cyclopropyl-4-pyrimidinecarboxylate] | 60 | 75 | 90 | 90 | 40 | 90 | 70 | 60 | 45% | 23% | 58% | 65% | 62% | 37% | 54% | 67% | Postemergence POLCO Obs (wild buckwheat (POLCO); Cpd 2 alone 4 g a.i./ha): 48; Postemergence POLCO Obs (wild buckwheat (POLCO); Cpd 2 alone 8 g a.i./ha): 53; Postemergence POLCO Obs (wild buckwheat (POLCO); Cpd 2 alone 16 g a.i./ha): 55; Postemergence AMARE Obs (redroot pigweed (AMARE); Cpd 2 alone 4 g a.i./ha): 43; Postemergence AMARE Obs (redroot pigweed (AMARE); Cpd 2 alone 8 g a.i./ha): 62; Postemergence AMARE Obs (redroot pigweed (AMARE); Cpd 2 alone 16 g a.i./ha): 68; Obs growth % of control (common ragweed (AMBEL); 19 DAA, 75 g a.i./ha): 75%; Obs growth % of control (common ragweed (AMBEL); 19 DAA, 100 g a.i./ha): 55%; Obs growth % of control (common ragweed (AMBEL); 28 DAA, 75 g a.i./ha): 20%; Obs growth % of control (common ragweed (AMBEL); 28 DAA, 100 g a.i./ha): 15%; Obs growth % of control (common ragweed (AMBEL); 56 DAA, 75 g a.i./ha): 17%; Obs growth % of control (common ragweed (AMBEL); 56 DAA, 100 g a.i./ha): 12% |
| CCc1cccc(C)c1N(C(=O)CCl)[C@@H](C)COC [S-Metolachlor, S-metolachlor, reference compound] | – | – | – | – | – | – | – | – | – | – | – | – | – | – | – | – | Obs growth % of control (common ragweed (AMBEL); 19 DAA, 1870 g a.i./ha): 100%; Obs growth % of control (common ragweed (AMBEL); 28 DAA, 1870 g a.i./ha): 75%; Obs growth % of control (common ragweed (AMBEL); 56 DAA, 1870 g a.i./ha): 93% |
| O=C(O)COc1ccc(Cl)cc1Cl [2,4-D, (2,4-dichlorophenoxy)acetic acid] | – | – | – | – | – | – | – | – | – | – | – | – | – | – | – | – | Postemergence POLCO Obs (wild buckwheat (POLCO); [1]): 58; Postemergence AMARE Obs (redroot pigweed (AMARE); [1]): 67 |
| O=C(O)CNCP(=O)(O)O [Glyphosate] | – | – | – | – | – | – | – | – | 55% | 60% | 77% | 79% | 75% | 61% | 82% | 93% | LAMPU Obs (red deadnettle (LAMPU); 57 DAA): 95% |
